The source made the active and inactive calls. The rule behind the calls is not given here.

The test system of experiment [1] is Endothelial cell. In words: Inhibition of endothelial cell ploriferation determined in bovine aortic endothelial cell (BAEC); Inactive. In kind it is functional, cell-based. The conditions noted are these: Bos taurus.
A short description of experiment [2]: Inhibition of indothelial cell ploriferation determined in bovine aortic endothelial cell (BAEC). The experiment is classed as functional, cell-based, Bos taurus.
A short description of experiment [3]: Inhibition of endothelial cell ploriferation determined in bovine aortic endothelial cell (BAEC). In kind it is functional, cell-based, Bos taurus.
Experiment [4] deals with T1, Methionine aminopeptidase 2 (Homo sapiens, UniProt P50579). Put plainly: In vitro inhibitory activity against purified recombinant human Methionine Aminopeptidase 2 (MetAP2).
Target sequence in this assay (P50579 whole entry): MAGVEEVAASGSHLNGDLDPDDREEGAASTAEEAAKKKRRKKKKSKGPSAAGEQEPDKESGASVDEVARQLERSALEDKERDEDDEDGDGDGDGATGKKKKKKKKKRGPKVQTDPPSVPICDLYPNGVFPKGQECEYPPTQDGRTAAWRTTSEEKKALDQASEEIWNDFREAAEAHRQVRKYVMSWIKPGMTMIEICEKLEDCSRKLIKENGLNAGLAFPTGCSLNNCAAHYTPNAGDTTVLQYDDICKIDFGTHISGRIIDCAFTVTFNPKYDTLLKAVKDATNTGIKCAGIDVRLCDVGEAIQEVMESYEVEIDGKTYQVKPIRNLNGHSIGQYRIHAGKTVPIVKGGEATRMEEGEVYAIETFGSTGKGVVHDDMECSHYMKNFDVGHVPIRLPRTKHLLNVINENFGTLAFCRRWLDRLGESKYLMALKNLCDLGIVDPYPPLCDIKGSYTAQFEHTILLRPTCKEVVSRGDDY
Experiment [5] relates to Endothelial cell. In words: Inhibition of indothelial cell ploriferation determined in bovine aortic endothelial cell (BAEC); Inactive. In kind it is functional, cell-based. Particulars: Bos taurus.
Experiment [6] addresses T1, Methionine aminopeptidase 2.
Target sequence in this assay (P50579 2-478 limits assumed): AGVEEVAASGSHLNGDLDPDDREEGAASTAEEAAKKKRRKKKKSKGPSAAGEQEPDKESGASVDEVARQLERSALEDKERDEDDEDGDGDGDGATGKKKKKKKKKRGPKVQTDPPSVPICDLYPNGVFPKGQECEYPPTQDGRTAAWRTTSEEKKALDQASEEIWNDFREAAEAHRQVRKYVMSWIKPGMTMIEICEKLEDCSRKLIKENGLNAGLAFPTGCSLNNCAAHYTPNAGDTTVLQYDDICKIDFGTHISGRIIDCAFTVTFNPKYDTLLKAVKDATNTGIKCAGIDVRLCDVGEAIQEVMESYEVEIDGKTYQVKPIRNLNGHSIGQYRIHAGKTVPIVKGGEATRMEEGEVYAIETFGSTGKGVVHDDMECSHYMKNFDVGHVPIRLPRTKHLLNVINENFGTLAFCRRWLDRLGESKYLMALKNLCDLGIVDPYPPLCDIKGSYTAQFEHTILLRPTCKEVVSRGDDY

In the case of `CO[C@H]1[C@H]([C@@]2(C)O[C@H]2CC=C(C)C)[C@@](O)(C=O)CC[C@@H]1O`, in the experiment on Endothelial cell [1], the NA result was “inactive”.
In experiment [2], `CO[C@@H]1C(=O)CC[C@](O)(C=O)[C@H]1[C@@]1(C)O[C@H]1CC=C(C)C` showed a concentration for half-maximal inhibition (IC50) of 52 nM.
`CO[C@@H]1[C@H](OC(=O)/C=C/C=C/C=C/C=C/C(=O)O)CC[C@]2(CO2)[C@H]1[C@@]1(C)O[C@@H]1CC=C(C)C` [FUMAGILLIN]: the results for the 50% inhibitory concentration (IC50) in experiment [3] and in experiment [4] were 200 nM and 1 nM, respectively.
Turning to `CO[C@@H]1C(=O)CC[C@](O)(C[S+]([O-])c2ccccc2)[C@H]1[C@@]1(C)O[C@@H]1CC=C(C)C` (some centres not stated), the NA result (in the experiment on Endothelial cell [5]; in experiment [6]) was “inactive” in each case.
`CO[C@@H]1[C@H](O)CC[C@](O)(C=O)[C@H]1[C@@]1(C)O[C@@H]1CC=C(C)C`: the NA entry in the experiment on Endothelial cell [5] was “inactive”.

The values are drawn from ChEMBL document CHEMBL1136797, “Fumagalone, a reversible inhibitor of type 2 methionine aminopeptidase and angiogenesis” (J Med Chem, 2003).
